pIC50: −log10 of the molar value.
Columns and labels:
phosphorylation of STAT6 = assay: Cellular p-STAT6 assay, IL-13 stimulated THP-1 cells, flow cytometry; assay type: cell-based; details: Homo sapiens, THP-1, THP-1 cells, IL-13 10 ng/ml; read-out: pSTAT6 IC50
Protocol: To detect phosphorylated STAT6 (pSTAT6), THP-1 cells were harvested by centrifugation at 250 g for 5 min and resuspended in assay medium (RPMI1640+10% FBS) to 2×10^5 cells/well. Test compounds were applied to assay plates in serial dilution from 1 μM to 0.3 nM in DMSO. THP-1 cells were incubated with serial diluted compounds for 60 min at room temperature, followed by stimulation of interleukin (IL-13, 10 ng/ml) for 30 min, fixed in Cytofix buffer (BD Biosciences), and permeabilized in 90% methanol on ice. PE anti-pSTAT6 (BD Biosciences) antibodies were stained for 60 min at room temperature before being analyzed by flow cytometry. In the assay the compounds were thus diluted and dose-response curves for inhibition of the signal determine the IC50 for the compounds.

JAK2 = target: T1, JAK2 (Homo sapiens, UniProt O60674); assay: Lance Ultra Kinase Assay, recombinant JAK2; assay type: biochemical; details: 5 mM ATP
T1 construct: purchased Carna Biosciences
T1 sequence (O60674 whole entry): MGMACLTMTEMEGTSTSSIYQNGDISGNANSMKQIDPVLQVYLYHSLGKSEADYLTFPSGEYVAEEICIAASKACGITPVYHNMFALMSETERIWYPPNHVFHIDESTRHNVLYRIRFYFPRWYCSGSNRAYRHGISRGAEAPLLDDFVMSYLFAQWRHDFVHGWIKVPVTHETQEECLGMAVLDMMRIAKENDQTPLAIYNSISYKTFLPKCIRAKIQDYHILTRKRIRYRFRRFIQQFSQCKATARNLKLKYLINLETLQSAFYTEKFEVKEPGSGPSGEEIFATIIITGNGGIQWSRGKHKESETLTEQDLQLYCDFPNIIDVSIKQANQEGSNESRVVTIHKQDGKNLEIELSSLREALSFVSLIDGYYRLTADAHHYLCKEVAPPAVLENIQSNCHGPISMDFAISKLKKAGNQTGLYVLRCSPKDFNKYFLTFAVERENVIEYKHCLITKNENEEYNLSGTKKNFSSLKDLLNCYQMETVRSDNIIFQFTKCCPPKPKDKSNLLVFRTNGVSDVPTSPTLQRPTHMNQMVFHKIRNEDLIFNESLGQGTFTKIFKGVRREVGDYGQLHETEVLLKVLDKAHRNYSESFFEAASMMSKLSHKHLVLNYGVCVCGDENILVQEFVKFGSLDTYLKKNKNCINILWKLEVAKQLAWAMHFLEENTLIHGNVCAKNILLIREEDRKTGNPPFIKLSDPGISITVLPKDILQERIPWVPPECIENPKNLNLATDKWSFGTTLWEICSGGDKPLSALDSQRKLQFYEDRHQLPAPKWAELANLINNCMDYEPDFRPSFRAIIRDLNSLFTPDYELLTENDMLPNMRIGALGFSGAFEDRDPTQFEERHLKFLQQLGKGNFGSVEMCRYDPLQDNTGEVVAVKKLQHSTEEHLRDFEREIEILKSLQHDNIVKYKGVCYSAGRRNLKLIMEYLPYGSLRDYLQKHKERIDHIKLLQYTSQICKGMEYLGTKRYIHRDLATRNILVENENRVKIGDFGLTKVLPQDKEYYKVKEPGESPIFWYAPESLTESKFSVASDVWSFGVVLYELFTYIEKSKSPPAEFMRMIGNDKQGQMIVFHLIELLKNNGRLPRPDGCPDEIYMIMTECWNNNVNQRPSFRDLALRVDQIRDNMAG
Protocol: (§1) Recombinant JAK1, JAK2, JAK3 and TYK2 purchased from Carna Biosciences. The inhibition potency of compounds against JAK1, JAK2, JAK3 and TYK2 was assessed using Lance Ultra Kinase Assay.
(§2) In brief, recombinant kinases were pre-incubated in the presence or absence of compound at room temperature for 15 minutes. The reaction was initiated by the addition of 5 mM ATP and substrate peptide which could be phosphorylated by kinases in the reaction. After 60 minutes incubation, the reaction was stopped by the addition of the detection reagent mix containing EDTA. The fluorescence was measured at 615 nm and 665 nm, respectively with excitation wavelength at 320 nm. The calculated signal ratio of 665 nm/615 nm is proportional to the kinase activity.

JAK1 = target: T2, JAK1 (Homo sapiens, UniProt P23458); assay: Lance Ultra Kinase Assay, recombinant JAK1; assay type: biochemical; details: 5 mM ATP
T2 construct: purchased Carna Biosciences
T2 sequence (P23458 whole entry): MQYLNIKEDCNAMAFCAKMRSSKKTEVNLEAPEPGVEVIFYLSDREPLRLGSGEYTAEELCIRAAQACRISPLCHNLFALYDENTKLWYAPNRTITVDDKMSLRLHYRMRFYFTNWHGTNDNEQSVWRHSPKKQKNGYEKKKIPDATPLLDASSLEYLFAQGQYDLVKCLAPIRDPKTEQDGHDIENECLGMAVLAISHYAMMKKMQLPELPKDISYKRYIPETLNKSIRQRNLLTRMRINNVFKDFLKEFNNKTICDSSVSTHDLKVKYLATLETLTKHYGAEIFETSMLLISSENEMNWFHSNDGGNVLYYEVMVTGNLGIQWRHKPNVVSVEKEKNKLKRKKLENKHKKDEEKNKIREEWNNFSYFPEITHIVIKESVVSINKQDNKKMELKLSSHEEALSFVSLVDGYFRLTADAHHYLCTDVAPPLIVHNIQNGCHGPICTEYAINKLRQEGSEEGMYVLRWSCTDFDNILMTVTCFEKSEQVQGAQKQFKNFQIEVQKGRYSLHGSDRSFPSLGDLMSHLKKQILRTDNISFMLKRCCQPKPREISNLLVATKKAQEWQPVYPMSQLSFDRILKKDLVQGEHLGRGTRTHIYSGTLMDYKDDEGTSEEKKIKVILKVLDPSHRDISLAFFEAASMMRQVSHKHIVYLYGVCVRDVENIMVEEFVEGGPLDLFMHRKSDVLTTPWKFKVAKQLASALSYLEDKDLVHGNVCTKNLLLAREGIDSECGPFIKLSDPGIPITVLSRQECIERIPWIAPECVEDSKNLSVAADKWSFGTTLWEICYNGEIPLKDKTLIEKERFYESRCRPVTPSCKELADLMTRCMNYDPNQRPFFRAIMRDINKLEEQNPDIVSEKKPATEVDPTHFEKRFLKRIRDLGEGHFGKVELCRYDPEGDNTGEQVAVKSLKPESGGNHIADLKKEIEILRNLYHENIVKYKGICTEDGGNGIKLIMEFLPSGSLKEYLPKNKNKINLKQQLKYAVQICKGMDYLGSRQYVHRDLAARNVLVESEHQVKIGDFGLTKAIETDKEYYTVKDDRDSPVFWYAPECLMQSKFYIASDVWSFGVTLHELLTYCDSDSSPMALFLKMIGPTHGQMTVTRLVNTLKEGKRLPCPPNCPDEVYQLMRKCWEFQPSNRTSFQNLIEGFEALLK
Protocol: as §1, §2

JAK3 = target: T3, JAK3 (Homo sapiens, UniProt P52333); assay: Lance Ultra Kinase Assay, recombinant JAK3; assay type: biochemical; details: 5 mM ATP
T3 construct: purchased Carna Biosciences
T3 sequence (P52333 1-1124): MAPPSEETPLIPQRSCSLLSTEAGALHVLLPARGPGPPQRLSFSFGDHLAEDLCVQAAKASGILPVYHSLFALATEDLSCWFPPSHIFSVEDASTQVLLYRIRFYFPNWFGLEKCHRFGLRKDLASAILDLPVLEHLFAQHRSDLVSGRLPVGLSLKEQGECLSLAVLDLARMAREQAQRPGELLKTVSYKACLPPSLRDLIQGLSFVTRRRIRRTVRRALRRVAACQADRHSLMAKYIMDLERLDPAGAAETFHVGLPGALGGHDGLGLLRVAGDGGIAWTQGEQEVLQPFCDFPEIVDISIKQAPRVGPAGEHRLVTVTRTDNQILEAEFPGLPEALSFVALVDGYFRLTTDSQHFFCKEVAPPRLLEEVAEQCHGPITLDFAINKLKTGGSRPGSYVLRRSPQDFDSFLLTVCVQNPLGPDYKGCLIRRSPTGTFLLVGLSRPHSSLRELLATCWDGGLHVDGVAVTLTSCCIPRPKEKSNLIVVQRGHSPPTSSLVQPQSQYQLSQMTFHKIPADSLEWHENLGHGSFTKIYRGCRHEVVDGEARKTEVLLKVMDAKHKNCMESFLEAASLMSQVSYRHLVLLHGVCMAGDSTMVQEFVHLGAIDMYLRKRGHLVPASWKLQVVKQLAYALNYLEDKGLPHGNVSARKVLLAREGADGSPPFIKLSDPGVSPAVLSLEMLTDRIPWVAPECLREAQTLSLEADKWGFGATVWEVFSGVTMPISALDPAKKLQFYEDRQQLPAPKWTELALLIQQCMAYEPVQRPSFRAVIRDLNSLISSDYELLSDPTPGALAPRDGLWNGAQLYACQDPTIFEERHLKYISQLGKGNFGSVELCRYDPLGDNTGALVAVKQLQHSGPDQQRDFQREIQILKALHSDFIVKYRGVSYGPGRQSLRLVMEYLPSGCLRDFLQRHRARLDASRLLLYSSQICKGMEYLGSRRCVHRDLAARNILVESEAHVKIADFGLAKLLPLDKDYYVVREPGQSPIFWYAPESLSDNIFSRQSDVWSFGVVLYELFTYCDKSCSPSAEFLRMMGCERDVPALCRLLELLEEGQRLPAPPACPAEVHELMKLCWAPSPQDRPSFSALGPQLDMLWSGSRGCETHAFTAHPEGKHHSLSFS
Protocol: as §1, §2

[1] = Metabolic stability in human liver microsome; assay type: in vitro ADME; details: human, pooled human liver microsomes, pH 7.4, 1 μM compound, 1 mg/mL microsomes, NADPH
Protocol: (§3) Rat hepatocytes in male gender and human liver microsome were obtained from commercial vendors (e.g., BioreclamationIVT) and stored at −150° C. prior to use.
For metabolic stability assay with human liver microsome, 1 μM of each test compound was incubated with 1 mg/mL of microsomes (Pooled HLM with 20 mg/ml protein cone) at 37° C. in 250 μL of buffer (100 mM phosphate buffer, pH-7.4) containing 1 mM NADPH solution. […] was quenched with 5 volumes chilled acetonitrile at different time points 0, 0.5, 5, 10, 15, 20 and 30 min in a fresh 96 well plate. The quench plate was centrifuged at 4000 rpm for 15 min. 40 μL of supernatant was diluted to 200 μL with pure water and analyzed using LC-MS/MS. […]

TYK2 = target: T4, TYK2 (Homo sapiens, UniProt P29597); assay: Lance Ultra Kinase Assay, recombinant TYK2; assay type: biochemical; details: 5 mM ATP
T4 construct: purchased Carna Biosciences
T4 sequence (P29597 whole entry): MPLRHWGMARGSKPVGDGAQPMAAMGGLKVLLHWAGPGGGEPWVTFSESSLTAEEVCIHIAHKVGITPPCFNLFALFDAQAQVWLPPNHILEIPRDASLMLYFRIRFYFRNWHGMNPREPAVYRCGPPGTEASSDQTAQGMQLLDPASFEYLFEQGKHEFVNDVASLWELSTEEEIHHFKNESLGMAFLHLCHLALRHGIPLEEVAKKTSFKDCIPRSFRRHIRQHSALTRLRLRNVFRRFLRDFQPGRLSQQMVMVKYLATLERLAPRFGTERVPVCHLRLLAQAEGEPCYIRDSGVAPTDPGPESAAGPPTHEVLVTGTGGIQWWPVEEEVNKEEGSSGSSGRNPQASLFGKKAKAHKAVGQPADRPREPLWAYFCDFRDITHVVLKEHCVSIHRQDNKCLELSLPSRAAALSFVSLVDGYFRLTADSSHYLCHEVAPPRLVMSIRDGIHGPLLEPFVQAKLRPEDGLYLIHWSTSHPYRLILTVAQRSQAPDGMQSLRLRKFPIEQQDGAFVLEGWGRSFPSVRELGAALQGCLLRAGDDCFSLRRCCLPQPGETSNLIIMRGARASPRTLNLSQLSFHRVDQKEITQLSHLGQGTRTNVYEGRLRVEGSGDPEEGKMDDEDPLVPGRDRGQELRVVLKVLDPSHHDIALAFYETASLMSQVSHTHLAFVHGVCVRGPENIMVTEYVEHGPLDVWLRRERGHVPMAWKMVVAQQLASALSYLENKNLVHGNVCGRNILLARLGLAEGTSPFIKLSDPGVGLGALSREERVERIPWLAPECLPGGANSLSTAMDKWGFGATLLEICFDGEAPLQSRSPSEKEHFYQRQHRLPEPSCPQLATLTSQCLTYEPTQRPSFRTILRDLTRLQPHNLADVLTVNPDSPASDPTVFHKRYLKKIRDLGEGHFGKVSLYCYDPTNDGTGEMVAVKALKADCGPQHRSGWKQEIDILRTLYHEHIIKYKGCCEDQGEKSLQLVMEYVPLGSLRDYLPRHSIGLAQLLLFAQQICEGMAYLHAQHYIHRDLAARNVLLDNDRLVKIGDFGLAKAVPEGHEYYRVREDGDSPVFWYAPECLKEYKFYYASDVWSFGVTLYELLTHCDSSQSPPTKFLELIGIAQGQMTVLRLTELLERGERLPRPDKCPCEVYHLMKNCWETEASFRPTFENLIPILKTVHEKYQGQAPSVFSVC
Protocol: as §1, §2

[2] = Metabolic stability in rat hepatocytes; assay type: in vitro ADME; details: 1 μM compound, male rat hepatocytes
Protocol: as §3
For metabolic stability assay with rat heptatocytes, vials of cryopreserved hepatocytes or microsome were removed from storage, ensured that vials remain at cryogenic temperatures. 1 μM of each test compound (in Acetonitrile; 0.01% DMSO) was incubated with 250 μL of hepatocyte cells (1×10^6 cells/ml) in a 96 deep well plate. […] 40 μL of supernatant was diluted to 200 μL with pure water and analyzed using LC-MS/MS.
In vitro hepatocyte clearance was estimated based on determination of elimination half-life (T1/2) of compounds disappearance from their initial concentrations. Peak area ratios of each compound (test or control) to IS was calculated. Ln (% Control) versus Incubation Time (min) curve was plotted, and the slope of a linear fitting line was calculated. Drug elimination rate constant k (min−1), T1/2 (min), and in vitro intrinsic clearance CLint (μL/min/E6) was calculated according to the following equations: k=−slope T1/2=0.693/k CLint=k/Chep Where Chep (cells×μL^−1) is the cell concentration in the incubation system.

| pIC50 (phosphorylation of STAT6) | pIC50 (JAK2) | pIC50 (JAK1) | pIC50 (JAK3) | microsomal CLint at 1 μM [1] [µL/min/mg] | pIC50 (TYK2) | Rat Hepatocyte CLint [2] [μL/min/10^6 cells] | SMILES |
| --- | --- | --- | --- | --- | --- | --- | --- |
| 7.85 | 6.42 | 9.57 | < 5.00 | 69.1 | 5.77 | 1.6 | COC[C@H](C(=O)Nc1cccc2c(-c3nc(Nc4ccc(NC(C)=O)nc4)ncc3F)c[nH]c12)N1CCN(C)CC1 [Example 48, (R)-N-(3-(2-((6-acetamidopyridin-3-yl)amino)-5-fluoropyrimidin-4-yl)-1H-indol-7-yl)-3-methoxy-2-(4-methylpiperazin-1-yl)propanamide] |
| 8.14 | 7.06 | 9.48 | 5.05 | 83.1 | 5.86 | 5.5 | COC[C@H](C(=O)Nc1cccc2c(-c3nc(Nc4ccc5cn[nH]c5c4)ncc3F)c[nH]c12)N1CCN(C)CC1 [Example 13, (R)-N-(3-(2-((1H-indazol-6-yl)amino)-5-fluoropyrimidin-4-yl)-1H-indol-7-yl)-3-methoxy-2-(4-methylpiperazin-1-yl)propanamide] |
| 7.69 | 7.46 | 9.74 | 5.17 | 19.5 | 6.22 | 153.6 | COC[C@H](C(=O)Nc1cccc2c(-c3nc(Nc4cnn(-c5cccc(CO)c5)c4)ncc3F)c[nH]c12)N1CCN(C)CC1 [Example 67, (R)-N-(3-(5-fluoro-2-((1-(3-(hydroxymethyl)phenyl)-1H-pyrazol-4-yl)amino)pyrimidin-4-yl)-1H-indol-7-yl)-3-methoxy-2-(4-methylpiperazin-1-yl)propanamide] |
| 7.94 | 6.31 | 9.54 | < 5.00 | > 300 | 5.34 | >300 | CCOC(=O)c1ccc(Nc2ncc(F)c(-c3c[nH]c4c(NC(=O)[C@@H](COC)N5CCN(C)CC5)cccc34)n2)cn1 [Example 36, ethyl (R)-5-((5-fluoro-4-(7-(3-methoxy-2-(4-methylpiperazin-1-yl)propanamido)-1H-indol-3-yl)pyrimidin-2-yl)amino)picolinate] |
| 7.95 | 6.70 | 9.59 | < 5.00 | 9.2 | 5.69 | 2.2 | COC[C@H](C(=O)Nc1cccc2c(-c3nc(Nc4ccc5c(c4)C(=O)NCC5)ncc3F)c[nH]c12)N1CCN(C)CC1 [Example 35, (R)-N-(3-(5-fluoro-2-((1-oxo-1,2,3,4-tetrahydroisoquinolin-7-yl)amino)pyrimidin-4-yl)-1H-indol-7-yl)-3-methoxy-2-(4-methylpiperazin-1-yl)propanamide] |
| 8.14 | 6.33 | 9.77 | < 5.00 | > 300 | 5.42 | 226.4 | COC[C@H](C(=O)Nc1cccc2c(-c3nc(Nc4ccc(C(=O)OC)nc4)ncc3F)c[nH]c12)N1CCN(C)CC1 [Example 12, methyl (R)-5-((5-fluoro-4-(7-(3-methoxy-2-(4-methylpiperazin-1-yl)propanamido)-1H-indol-3-yl)pyrimidin-2-yl)amino)picolinate] |
| 8.40 | 7.07 | 9.89 | < 5.00 | 4.9 | 6.19 | 68.8 | COC[C@H](C(=O)Nc1cccc2c(-c3nc(Nc4ccc(CO)nc4)ncc3F)c[nH]c12)N1CCN(C)CC1 [Example 1, (R)-N-(3-(5-fluoro-2-((6-(hydroxymethyl)pyridin-3-yl)amino)pyrimidin-4-yl)-1H-indol-7-yl)-3-methoxy-2-(4-methylpiperazin-1-yl)propanamide] |
| 8.14 | 7.70 | 9.72 | < 5.00 | > 300 | 5.84 | 68.0 | COC[C@H](C(=O)Nc1cccc2c(-c3nc(Nc4ccnc(CCC(=O)OC)c4)ncc3F)c[nH]c12)N1CCN(C)CC1 [Example 15, methyl (R)-3-(4-((5-fluoro-4-(7-(3-methoxy-2-(4-methylpiperazin-1-yl)propanamido)-1H-indol-3-yl)pyrimidin-2-yl)amino)pyridin-2-yl)propanoate] |
| 7.73 | 6.70 | 9.49 | < 5.00 |  | 5.90 |  | COCCOc1ccc(Nc2ncc(F)c(-c3c[nH]c4c(NC(=O)[C@@H](COC)N5CCN(C)CC5)cccc34)n2)cn1 [Example 65, (R)-N-(3-(5-fluoro-2-((6-(2-methoxyethoxy)pyridin-3-yl)amino)pyrimidin-4-yl)-1H-indol-7-yl)-3-methoxy-2-(4-methylpiperazin-1-yl)propanamide] |
| 8.12 | 7.66 | 9.85 | 5.11 |  | 5.96 |  | COC[C@H](C(=O)Nc1cccc2c(-c3nc(Nc4cnn(C5CCOCC5)c4)ncc3F)c[nH]c12)N1CCN(C)CC1 [Example 18, (R)-N-(3-(5-fluoro-2-((1-(tetrahydro-2H-pyran-4-yl)-1H-pyrazol-4-yl)amino)pyrimidin-4-yl)-1H-indol-7-yl)-3-methoxy-2-(4-methylpiperazin-1-yl)propanamide] |

Source: patent publication US12606544B2, “JAK1 selective kinase inhibitor” (DIZAL (JIANGSU) PHARMACEUTICAL CO., LTD., priority 2019, dated 2026)
